Laboratory results from patent publication US20050026236A1, “PDE 10 cell-based assay and sequences” (Pfizer Inc, priority 2001, published 2005).

How the values were obtained:
[1] = system: primary striatal medium spiny neurons; test: cGMP accumulation in cultured primary striatal medium spiny neurons; type: cell-based, rat; conditions: 100 μM; SNP-stimulated
[2] = system: primary striatal medium spiny neurons; test: cAMP accumulation in forskolin-stimulated striatal cultures; type: cell-based, rat; conditions: ratio of EC200 values in striatal cultures
Description: (§1) Striatal cultures were prepared as previously described (Ventimiglia et al., Eur. J. Neurosci. 7: 213-222, 1995). Briefly, striata (caudate nucleus and putamen) were dissected from E17 rats, dissociated to produce a single cell suspension, and plated at a density of 5×10^4 neurons/well in 96-well plates coated with poly-L-ornithine/laminin (Cat. No. 354657, BD Biosciences, Bedford, Mass.). The cells were plated in Neurobasal medium (Cat. No. 21103-049, Gibco BRL, Grand Island, N.Y.) with B27 supplements (Cat. No. 17504-010, Gibco BRL) and human recombinant brain-derived neurotrophic factor (BDNF) (100 ng/ml) (Cat. No. 248-BD, R & D Systems, Minneapolis, Minn.). Striatal medium spiny neurons comprised 50-60% of cells in these cultures, as confirmed by a GABA immunoreactivity protocol as previously described (Ventimiglia et al., 1995, supra). Expression of PDE10A mRNA in these cultures was confirmed by RNase protection assay, as further described below.
(§2) After approximately four days in vitro, the striatal cells were washed with Ca^2+/Mg^2+ free phosphate buffered saline (pH 7.4) and preincubated for an hour in a buffer containing Ca^2+/Mg^2+ free phosphate buffered saline, 30 mM HEPES (pH 7.4), 1 mM CaCl2, 1 mg/ml dextrose, and 5 mM MgCl2. The striatal cells were then exposed to one of the PDE inhibitors and incubated for 20 min. at 37° C. When measuring cGMP, the neurons were stimulated with sodium nitroprusside (SNP) (100 μM) for two min. after the 20 min. incubation with the PDE inhibitor.
(§3) The cells were lysed using a 9:1 combination of SPA direct screening Assay Buffer (0.05 M acetate with 0.01% sodium azide) and Buffer A (133 mg/ml dodecyltrimethylammonium bromide), and the lysates were frozen on dry ice.

[3] = system: primary striatal medium spiny neurons; test: cGMP accumulation in SNP-stimulated striatal cultures; type: cell-based, rat; conditions: for EC200 (concentration giving a 2-fold increase in cGMP): concentration yielding a 2-fold increase in cGMP, SNP 100 μM for 2 min after 20 min inhibitor incubation
Description: as §1, §2, §3

PDE10A [4] = test: Papaverine inhibition of PDE10A, SPA-based PDE assay; type: biochemical
Description: Phosphodiesterases 7-11 were generated from full length recombinant clones transfected into SF9 cells as previously described (Fisher et al., Biochem. Biophys. Res. Comm. 246: 570-577, 1998; Fisher et al., J. Biol. Chem. 273: 15559-15564, 1998b; Soderling et al., PNAS 96: 7071-7076, 1999; Fawcett et al., PNAS 97: 3702-3707, 2000). The enzymes were purified by FPLC from the soluble fraction of cell lysates as described in Boolell et al., supra.
PDE activity was measured using a SPA-based method as previously described (Fawcett et al., 2000). Assays were conducted using a fixed amount of PDE10A enzyme in the presence of varying inhibitor concentrations. […] The final assay volume was adjusted to 100 μl with assay buffer (20 mM Tris-HCl pH 7.4, 5 mM MgCl2, 1 mg/ml bovine serum albumin).
Reactions were initiated with the addition of enzyme. Samples were incubated for 30-60 min. at 30° C. to give <30% substrate turnover and terminated with 50 μl yttrium silicate SPA beads (Amersham) containing 3 mM of the appropriate unlabelled cyclic nucleotide. Plates were re-sealed and shaken for 20 min.; the beads were then allowed to settle for 30 min. in the dark and then counted on a TopCount plate reader (Packard, Meriden, Conn.). Radioactivity units were converted to percent activity as compared to an uninhibited control (100%). […]

PDE7 = conditions: substrate at 1/3 Km
PDE1 = conditions: substrate at 1/3 Km
PDE10A [5] = conditions: cited from earlier work
[6] = system: primary striatal medium spiny neurons; test: cAMP accumulation in cultured primary striatal medium spiny neurons; conditions: Rattus norvegicus, Neuron

For CCCOc1ccccc1-c1nc2nn[nH]c2c(=O)[nH]1 [Zaprinast], the “effect on level of cGMP” value [1] was “did not quite double the level of cGMP”.

For CC(C)Cn1c(=O)n(C)c(=O)c2[nH]cnc21 [IBMX, 3-isobutyl-1-methylxanthine], the “cAMP EC200/cGMP EC200” value [2] was 1.5, the EC200 (concentration giving a 2-fold increase in cGMP) ([3]; Rattus norvegicus, Neuron) was 19 µM and the EC200 (concentration giving a 2-fold increase in cGMP) [3] was 19.5 µM.

In the case of CCCOc1ccccc1-c1nc2nn[nH]c2c(=O)[nH]1 [Zaprinast, zaprinast], the “cAMP EC200/cGMP EC200” value [2] is reported as 1, the EC200 (concentration giving a 2-fold increase in cGMP) ([3]; Rattus norvegicus, Neuron) is reported as > 100 µM and the EC200 (concentration giving a 2-fold increase in cGMP) [3] is reported as 98.3 ± 10.3 µM.

In the case of COc1ccc(Cc2nccc3cc(OC)c(OC)cc23)cc1OC [Papaverine], the mode of inhibition (PDE10A [4]) is reported as “competitive inhibitor”, the IC50 (PDE7) is reported as 27 µM and the “cGMP levels elevated over cultures stimulated with SNP alone (maximal effect)” value ([3]; 100 μM papaverine, SNP 100 μM) is reported as 5 fold. The “effect on cGMP levels in unstimulated cells” value ([3]; cells unstimulated by SNP or forskolin) was “did not affect” and the IC50 (PDE1) was 37 µM.

In the case of Nc1nc2c(ncn2[C@@H]2O[C@@H]3COP(=O)(O)O[C@H]3[C@H]2O)c(=O)[nH]1 [cGMP, cyclic guanine 3′5′-monophosphate], the “greater Vmax for cGMP over cAMP” value (PDE10A [5]; Fujishige et al., 1999) is given as “approximately 5 fold” and the Km (PDE10A [5]; read-out: Km for cGMP) is given as 3000 nM.

For C=C[C@@]1(C)CC(=O)[C@]2(O)[C@@]3(C)[C@@H](O)CCC(C)(C)[C@@H]3[C@H](O)[C@H](OC(C)=O)[C@@]2(C)O1 [forskolin], the fold induction at 1 µM ([6]; read-out: increase over basal cAMP) was 2 to 3 and the activation at 1 µM ([6]; read-out: per cent of the maximal cAMP response) was 20 to 25%.

With COc1ccc(C2CNC(=O)C2)cc1OC1CCCC1 (stereo not shown) [Rolipram, rolipram] the “cAMP EC200/cGMP EC200” value [2] was 0.09, the EC200 (concentration giving a 2-fold increase in cGMP) ([3]; Rattus norvegicus, Neuron) was 29.2 ± 10.3 µM and the “concentration needed to double the rate of cGMP accumulation relative to cAMP EC200” value ([3]; higher than cAMP EC200 of 2.5 μM) was 10 fold.
